Converted amounts (≈) assume the structure as drawn.
Assays:
[1] = Kinetic solubility analysis (CLND: total chemiluminescent nitrogen determination); conditions: 1.0% DMSO, 24-hour incubation at ambient temperature, maximum theoretical concentration 100 μM; for pH 2 solubility: 0.1N HCl; for pH 7 solubility: 1×PBS buffer (pH 7.4)
[2] = Solubility in simulated intestinal fluids (FaSSIF / FeSSIF); conditions: 25 °C, thermodynamic from solid
[3] = fasted state simulated intestinal fluid (FaSSIF), fassif
[4] = fed state simulated intestinal fluid (FeSSIF), fessif

SMILES	pH 2 solubility [1]	pH 7 solubility [1]	solubility [2, 3] [µg/mL]	solubility [2, 4] [µg/mL]
CC(C)(C#Cc1ccc(-c2ccc(Cl)c3c(N(C(=O)[C@H]4C[C@H](N)C4)S(C)(=O)=O)nn(CC(F)(F)F)c23)c([C@H](Cc2cc(F)cc(F)c2)NC(=O)Cn2nc(C(F)(F)F)c3c2C(F)(F)[C@@H]2C[C@H]32)n1)S(C)(=O)=O [Compound 7, (trans)-3-amino-N-(4-chloro-7-(2-((S)-1-(2-((3bS,4aR)-5,5-difluoro-3-(trifluoromethyl)-3b,4,4a,5-tetrahydro-1H-cyclopropa[3,4]cyclopenta[1,2-c]pyrazol-1-yl)acetamido)-2-(3,5-difluorophenyl)ethyl)-6-(3-methyl-3-(methylsulfonyl)but-1-yn-1-yl)pyridin-3-yl)-1-(2,2,2-trifluoroethyl)-1H-indazol-3-yl)-N-(methylsulfonyl)cyclobutane-1-carboxamide]	70 μM	1 μM	–	–
CC(C)(C#Cc1ccc(-c2ccc(Cl)c3c(N(C(=O)[C@H]4C[C@H](NC(=O)C(=O)O)C4)S(C)(=O)=O)nn(CC(F)(F)F)c23)c([C@H](Cc2cc(F)cc(F)c2)NC(=O)Cn2nc(C(F)(F)F)c3c2C(F)(F)[C@@H]2C[C@H]32)n1)S(C)(=O)=O [Compound 8]	<1/1 μM	<1/1 μM	–	–
CC(C)(C#Cc1ccc(-c2ccc(Cl)c3c(N(C(=O)[C@H]4C[C@H](NC(=N)N)C4)S(C)(=O)=O)nn(CC(F)(F)F)c23)c([C@H](Cc2cc(F)cc(F)c2)NC(=O)Cn2nc(C(F)(F)F)c3c2C(F)(F)[C@@H]2C[C@H]32)n1)S(C)(=O)=O [Compound 9, trans-N-(4-chloro-7-(2-((S)-1-(2-((3bS,4aR)-5,5-difluoro-3-(trifluoromethyl)-3b,4,4a,5-tetrahydro-1H-cyclopropa[3,4]cyclopenta[1,2-c]pyrazol-1-yl)acetamido)-2-(3,5-difluorophenyl)ethyl)-6-(3-methyl-3-(methylsulfonyl)but-1-yn-1-yl)pyridin-3-yl)-1-(2,2,2-trifluoroethyl)-1H-indazol-3-yl)-3-guanidino-N-(methylsulfonyl)cyclobutane-1-carboxamide]	9 μM	2 μM	17 (≈ 15.4 µM)	83 (≈ 74.9 µM)
CC(C)(C#Cc1ccc(-c2ccc(Cl)c3c(N(C(=O)[C@@H]4C[C@@H]4COP(=O)(O)O)S(C)(=O)=O)nn(CC(F)(F)F)c23)c([C@H](Cc2cc(F)cc(F)c2)NC(=O)Cn2nc(C(F)(F)F)c3c2C(F)(F)[C@@H]2C[C@H]32)n1)S(C)(=O)=O [Compound 11]	1 μM	61 μM	401 (≈ 350 µM)	355 (≈ 310 µM)
CC(C)(C#Cc1ccc(-c2ccc(Cl)c3c(N(C(=O)[C@@H]4C[C@H](C(=O)O)C[C@H](C(=O)O)C4)S(C)(=O)=O)nn(CC(F)(F)F)c23)c([C@H](Cc2cc(F)cc(F)c2)NC(=O)Cn2nc(C(F)(F)F)c3c2C(F)(F)[C@@H]2C[C@H]32)n1)S(C)(=O)=O [Compound 15, (1R,3S,5r)-5-((4-chloro-7-(2-((S)-1-(2-((3bS,4aR)-5,5-difluoro-3-(trifluoromethyl)-3b,4,4a,5-tetrahydro-1H-cyclopropa[3,4]cyclopenta[1,2-c]pyrazol-1-yl)acetamido)-2-(3,5-difluorophenyl)ethyl)-6-(3-methyl-3-(methylsulfonyl)but-1-yn-1-yl)pyridin-3-yl)-1-(2,2,2-trifluoroethyl)-1H-indazol-3-yl)(methylsulfonyl)carbamoyl)cyclohexane-1,3-dicarboxylic acid]	1/1 μM	1/1 μM	253 (≈ 217 µM)	38 (≈ 32.6 µM)
CC(C)(C#Cc1ccc(-c2ccc(Cl)c3c(N(C(=O)[C@H]4C[C@H]4C(=O)O)S(C)(=O)=O)nn(CC(F)(F)F)c23)c([C@H](Cc2cc(F)cc(F)c2)NC(=O)Cn2nc(C(F)(F)F)c3c2C(F)(F)[C@@H]2C[C@H]32)n1)S(C)(=O)=O [Compound 17, (1R,2S)-2-((4-chloro-7-(2-((S)-1-(2-((3bS,4aR)-5,5-difluoro-3-(trifluoromethyl)-3b,4,4a,5-tetrahydro-1H-cyclopropa[3,4]cyclopenta[1,2-c]pyrazol-1-yl)acetamido)-2-(3,5-difluorophenyl)ethyl)-6-(3-methyl-3-(methylsulfonyl)but-1-yn-1-yl)pyridin-3-yl)-1-(2,2,2-trifluoroethyl)-1H-indazol-3-yl)(methylsulfonyl)carbamoyl)cyclopropane-1-carboxylic acid]	3/3 μM	3/3 μM	–	–

The next lines start with the values.

pH 2 solubility [1]	pH 7 solubility [1]	solubility [2, 3] [µg/mL]	solubility [2, 4] [µg/mL]	SMILES
39 μM	1 μM	–	–	CN1CCN(C(=O)N(c2nn(CC(F)(F)F)c3c(-c4ccc(C#CC(C)(C)S(C)(=O)=O)nc4[C@H](Cc4cc(F)cc(F)c4)NC(=O)Cn4nc(C(F)(F)F)c5c4C(F)(F)[C@@H]4C[C@H]54)ccc(Cl)c23)S(C)(=O)=O)CC1 [Compound 1, N-(4-chloro-7-(2-((S)-1-(2-((3bS,4aR)-5,5-difluoro-3-(trifluoromethyl)-3b,4,4a,5-tetrahydro-1H-cyclopropa[3,4]cyclopenta[1,2-c]pyrazol-1-yl)acetamido)-2-(3,5-difluorophenyl)ethyl)-6-(3-methyl-3-(methylsulfonyl)but-1-yn-1-yl)pyridin-3-yl)-1-(2,2,2-trifluoroethyl)-1H-indazol-3-yl)-4-methyl-N-(methylsulfonyl)piperazine-1-carboxamide]
17 μM	1 μM	–	–	CC(C)(C#Cc1ccc(-c2ccc(Cl)c3c(N(C(=O)N4CCC(N5CCCCC5)CC4)S(C)(=O)=O)nn(CC(F)(F)F)c23)c([C@H](Cc2cc(F)cc(F)c2)NC(=O)Cn2nc(C(F)(F)F)c3c2C(F)(F)[C@@H]2C[C@H]32)n1)S(C)(=O)=O [Compound 2, N-(4-chloro-7-(2-((S)-1-(2-((3bS,4aR)-5,5-difluoro-3-(trifluoromethyl)-3b,4,4a,5-tetrahydro-1H-cyclopropa[3,4]cyclopenta[1,2-c]pyrazol-1-yl)acetamido)-2-(3,5-difluorophenyl)ethyl)-6-(3-methyl-3-(methylsulfonyl)but-1-yn-1-yl)pyridin-3-yl)-1-(2,2,2-trifluoroethyl)-1H-indazol-3-yl)-N-(methylsulfonyl)-[1,4′-bipiperidine]-1′-carboxamide]
34 μM	1 μM	–	–	CC(C)(C#Cc1ccc(-c2ccc(Cl)c3c(N(C(=O)C4CNC4)S(C)(=O)=O)nn(CC(F)(F)F)c23)c([C@H](Cc2cc(F)cc(F)c2)NC(=O)Cn2nc(C(F)(F)F)c3c2C(F)(F)[C@@H]2C[C@H]32)n1)S(C)(=O)=O [Compound 5, N-(4-chloro-7-(2-((S)-1-(2-((3bS,4aR)-5,5-difluoro-3-(trifluoromethyl)-3b,4,4a,5-tetrahydro-1H-cyclopropa[3,4]cyclopenta[1,2-c]pyrazol-1-yl)acetamido)-2-(3,5-difluorophenyl)ethyl)-6-(3-methyl-3-(methylsulfonyl)but-1-yn-1-yl)pyridin-3-yl)-1-(2,2,2-trifluoroethyl)-1H-indazol-3-yl)-N-(methylsulfonyl)azetidine-3-carboxamide]
15 μM	9 μM	–	–	CC(C)(C#Cc1ccc(-c2ccc(Cl)c3c(N(C(=O)C4CN(C(=N)N)C4)S(C)(=O)=O)nn(CC(F)(F)F)c23)c([C@H](Cc2cc(F)cc(F)c2)NC(=O)Cn2nc(C(F)(F)F)c3c2C(F)(F)[C@@H]2C[C@H]32)n1)S(C)(=O)=O [Compound 6, 1-carbamimidoyl-N-(4-chloro-7-(2-((S)-1-(2-((3bS,4aR)-5,5-difluoro-3-(trifluoromethyl)-3b,4,4a,5-tetrahydro-1H-cyclopropa[3,4]cyclopenta[1,2-c]pyrazol-1-yl)acetamido)-2-(3,5-difluorophenyl)ethyl)-6-(3-methyl-3-(methylsulfonyl)but-1-yn-1-yl)pyridin-3-yl)-1-(2,2,2-trifluoroethyl)-1H-indazol-3-yl)-N-(methylsulfonyl)azetidine-3-carboxamide]
1 μM	19 μM	–	–	CC(C)(C#Cc1ccc(-c2ccc(Cl)c3c(N(C(=O)N4CCC(C(=O)O)CC4)S(C)(=O)=O)nn(CC(F)(F)F)c23)c([C@H](Cc2cc(F)cc(F)c2)NC(=O)Cn2nc(C(F)(F)F)c3c2C(F)(F)[C@@H]2C[C@H]32)n1)S(C)(=O)=O [Compound 25, 1-((4-chloro-7-(2-((S)-1-(2-((3bS,4aR)-5,5-difluoro-3-(trifluoromethyl)-3b,4,4a,5-tetrahydro-1H-cyclopropa[3,4]cyclopenta[1,2-c]pyrazol-1-yl)acetamido)-2-(3,5-difluorophenyl)ethyl)-6-(3-methyl-3-(methylsulfonyl)but-1-yn-1-yl)pyridin-3-yl)-1-(2,2,2-trifluoroethyl)-1H-indazol-3-yl)(methylsulfonyl)carbamoyl)piperidine-4-carboxylic acid]
61 μM	14 μM	–	–	CC(C)(C#Cc1ccc(-c2ccc(Cl)c3c(N(C(=O)N4CCC[C@H]4CN)S(C)(=O)=O)nn(CC(F)(F)F)c23)c([C@H](Cc2cc(F)cc(F)c2)NC(=O)Cn2nc(C(F)(F)F)c3c2C(F)(F)[C@@H]2C[C@H]32)n1)S(C)(=O)=O [Compound 31, (S)-2-(aminomethyl)-N-(4-chloro-7-(2-((S)-1-(2-((3bS,4aR)-5,5-difluoro-3-(trifluoromethyl)-3b,4,4a,5-tetrahydro-1H-cyclopropa[3,4]cyclopenta[1,2-c]pyrazol-1-yl)acetamido)-2-(3,5-difluorophenyl)ethyl)-6-(3-methyl-3-(methylsulfonyl)but-1-yn-1-yl)pyridin-3-yl)-1-(2,2,2-trifluoroethyl)-1H-indazol-3-yl)-N-(methylsulfonyl)pyrrolidine-1-carboxamide]
